Reference: ChEMBL document CHEMBL4376868, “Structure-Activity Relationship Study of Novel 6-Aryl-2-benzoyl-pyridines as Tubulin Polymerization Inhibitors with Potent Antiproliferative Properties” (J Med Chem, 2020)

What follows are molecules tested on RPMI-7951 (assay: Antiproliferative activity against human RPMI7951 cells measured after 72 hrs by MTS assay). Details: RPMI-7951, 72 h.
Format: functional, cell-based

| SMILES | IC50 [nM] |
| --- | --- |
| COc1cc(C(=O)c2cccc(-c3ccc(C(F)(F)F)cc3)n2)cc(OC)c1OC | 19.6 |
| COc1cc(C(=O)c2cccc(-c3ccc(C(C)=O)cc3)n2)cc(OC)c1OC | 40.5 |
| COc1cc(C(=O)c2cccc(-c3cccc(O)c3)n2)cc(OC)c1OC | 29.9 |
| COc1cc(C(=O)c2cccc(-c3cncnc3)n2)cc(OC)c1OC | > 1000 |
| COc1cc(C(=O)c2cccc(-c3ccc([N+](=O)[O-])cc3)n2)cc(OC)c1OC | 12.9 |
| COc1cc(C(=O)c2cccc(-c3cccc(C)c3)n2)cc(OC)c1OC | 60.7 |
| COc1cc(C(=O)c2cccc(-c3cccc([N+](=O)[O-])c3)n2)cc(OC)c1OC | 54.7 |
| COc1cc(C(=O)c2cccc(-c3cccnc3)n2)cc(OC)c1OC | 51.9 |
| COc1cc(C(=O)c2cc(-c3ccc(C)cc3)ccn2)cc(OC)c1OC | 19.8 |
| COc1cc(C(=O)c2cccc(-c3ccc(N)cc3)n2)cc(OC)c1OC | 9.4 |
| COc1cc(C(=O)c2cccc(-c3ccc(F)cc3)n2)cc(OC)c1OC | 23.2 |

These molecules were tested on MDA-MB-453 (assay: Antiproliferative activity against human MDA-MB-453 cells measured after 72 hrs by MTS assay). Details: MDA-MB-453, 72 h.
Format: functional, cell-based

| SMILES | IC50 [nM] |
| --- | --- |
| COc1cc(C(=O)c2cccc(-c3ccc(C(F)(F)F)cc3)n2)cc(OC)c1OC | 7.9 |
| COc1cc(C(=O)c2cccc(-c3cccc(C)c3)n2)cc(OC)c1OC | 63.6 |
| COc1cc(C(=O)c2cc(-c3ccc(C)cc3)ccn2)cc(OC)c1OC | 7.1 |
| COc1cc(C(=O)c2cccc(-c3ccc(N)cc3)n2)cc(OC)c1OC | 13.4 |
| COc1cc(C(=O)c2cccc(-c3ccc(F)cc3)n2)cc(OC)c1OC | 21.4 |

Results, then the molecule that gave them:

| IC50 [nM] | SMILES |
| --- | --- |
| 19.1 | COc1cc(C(=O)c2cccc(-c3ccc(C(C)=O)cc3)n2)cc(OC)c1OC |
| 29.1 | COc1cc(C(=O)c2cccc(-c3cccc(O)c3)n2)cc(OC)c1OC |
| > 1000 | COc1cc(C(=O)c2cccc(-c3cncnc3)n2)cc(OC)c1OC |
| 6.9 | COc1cc(C(=O)c2cccc(-c3ccc([N+](=O)[O-])cc3)n2)cc(OC)c1OC |
| 881 | COc1cc(C(=O)c2cccc(-c3cccc([N+](=O)[O-])c3)n2)cc(OC)c1OC |
| 102 | COc1cc(C(=O)c2cccc(-c3cccnc3)n2)cc(OC)c1OC |

Each molecule was assayed on A-375 (assay: Antiproliferative activity against human A375 cells measured after 72 hrs by MTS assay). Details: A-375, 72 h.
Format: functional, cell-based

| SMILES | IC50 [nM] |
| --- | --- |
| COc1cc(C(=O)c2cccc(-c3ccc(C(F)(F)F)cc3)n2)cc(OC)c1OC | 19.8 |
| COc1cc(C(=O)c2cccc(-c3cccc(C)c3)n2)cc(OC)c1OC | 62.9 |
| COc1cc(C(=O)c2cc(-c3ccc(C)cc3)ccn2)cc(OC)c1OC | 15.6 |
| COc1cc(C(=O)c2cccc(-c3ccc(N)cc3)n2)cc(OC)c1OC | 13.2 |
| COc1cc(C(=O)c2cccc(-c3ccc(F)cc3)n2)cc(OC)c1OC | 25 |

Now from value to molecule:

| IC50 [nM] | SMILES |
| --- | --- |
| 24 | COc1cc(C(=O)c2cccc(-c3ccc(C(C)=O)cc3)n2)cc(OC)c1OC |
| 35.8 | COc1cc(C(=O)c2cccc(-c3cccc(O)c3)n2)cc(OC)c1OC |
| > 1000 | COc1cc(C(=O)c2cccc(-c3cncnc3)n2)cc(OC)c1OC |
| 11.4 | COc1cc(C(=O)c2cccc(-c3ccc([N+](=O)[O-])cc3)n2)cc(OC)c1OC |
| 311 | COc1cc(C(=O)c2cccc(-c3cccc([N+](=O)[O-])c3)n2)cc(OC)c1OC |
| 60.1 | COc1cc(C(=O)c2cccc(-c3cccnc3)n2)cc(OC)c1OC |

What follows are molecules tested on MDA-MB-231 (assay: Antiproliferative activity against human MDA-MB-231 cells measured after 72 hrs by MTS assay). Details: MDA-MB-231, 72 h.
Format: functional, cell-based

| SMILES | IC50 [nM] |
| --- | --- |
| COc1cc(C(=O)c2cccc(-c3ccc(C(F)(F)F)cc3)n2)cc(OC)c1OC | 23.6 |
| COc1cc(C(=O)c2cccc(-c3cccc(C)c3)n2)cc(OC)c1OC | 82.4 |
| COc1cc(C(=O)c2cc(-c3ccc(C)cc3)ccn2)cc(OC)c1OC | 35.2 |
| COc1cc(C(=O)c2cccc(-c3ccc(N)cc3)n2)cc(OC)c1OC | 27.1 |
| COc1cc(C(=O)c2cccc(-c3ccc(F)cc3)n2)cc(OC)c1OC | 20.7 |

Further lines, results first:

| IC50 [nM] | SMILES |
| --- | --- |
| 104 | COc1cc(C(=O)c2cccc(-c3ccc(C(C)=O)cc3)n2)cc(OC)c1OC |
| 41.4 | COc1cc(C(=O)c2cccc(-c3cccc(O)c3)n2)cc(OC)c1OC |
| > 1000 | COc1cc(C(=O)c2cccc(-c3cncnc3)n2)cc(OC)c1OC |
| 9 | COc1cc(C(=O)c2cccc(-c3ccc([N+](=O)[O-])cc3)n2)cc(OC)c1OC |
| 328 | COc1cc(C(=O)c2cccc(-c3cccc([N+](=O)[O-])c3)n2)cc(OC)c1OC |
| 66.5 | COc1cc(C(=O)c2cccc(-c3cccnc3)n2)cc(OC)c1OC |

These molecules were tested on SK-BR-3 (assay: Antiproliferative activity against human SK-BR-3 cells measured after 72 hrs by MTS assay). Details: SK-BR-3, 72 h.
Format: functional, cell-based

| SMILES | IC50 [nM] |
| --- | --- |
| COc1cc(C(=O)c2cccc(-c3ccc(C(F)(F)F)cc3)n2)cc(OC)c1OC | 7 |
| COc1cc(C(=O)c2cccc(-c3cccc(C)c3)n2)cc(OC)c1OC | 61 |
| COc1cc(C(=O)c2cc(-c3ccc(C)cc3)ccn2)cc(OC)c1OC | 12 |
| COc1cc(C(=O)c2cccc(-c3ccc(N)cc3)n2)cc(OC)c1OC | 16.2 |
| COc1cc(C(=O)c2cccc(-c3ccc(F)cc3)n2)cc(OC)c1OC | 36.6 |

The next lines start with the values.

| IC50 [nM] | SMILES |
| --- | --- |
| 18.8 | COc1cc(C(=O)c2cccc(-c3ccc(C(C)=O)cc3)n2)cc(OC)c1OC |
| 101 | COc1cc(C(=O)c2cccc(-c3cccc(O)c3)n2)cc(OC)c1OC |
| > 1000 | COc1cc(C(=O)c2cccc(-c3cncnc3)n2)cc(OC)c1OC |
| 5 | COc1cc(C(=O)c2cccc(-c3ccc([N+](=O)[O-])cc3)n2)cc(OC)c1OC |
| 736 | COc1cc(C(=O)c2cccc(-c3cccc([N+](=O)[O-])c3)n2)cc(OC)c1OC |
| 109 | COc1cc(C(=O)c2cccc(-c3cccnc3)n2)cc(OC)c1OC |

These molecules were tested on M14 (assay: Antiproliferative activity against human M14 cells measured after 72 hrs by MTS assay). Details: M14, 72 h.
Format: functional, cell-based

| SMILES | IC50 [nM] |
| --- | --- |
| COc1cc(C(=O)c2cccc(-c3ccc(C(F)(F)F)cc3)n2)cc(OC)c1OC | 21.4 |
| COc1cc(C(=O)c2cccc(-c3ccc(C(C)=O)cc3)n2)cc(OC)c1OC | 22.5 |
| COc1cc(C(=O)c2cccc(-c3cccc(O)c3)n2)cc(OC)c1OC | 31.4 |
| COc1cc(C(=O)c2cccc(-c3cncnc3)n2)cc(OC)c1OC | > 1000 |
| COc1cc(C(=O)c2cccc(-c3ccc([N+](=O)[O-])cc3)n2)cc(OC)c1OC | 10.9 |
| COc1cc(C(=O)c2cccc(-c3cccc(C)c3)n2)cc(OC)c1OC | 46.1 |
| COc1cc(C(=O)c2cccc(-c3cccc([N+](=O)[O-])c3)n2)cc(OC)c1OC | 87.9 |
| COc1cc(C(=O)c2cccc(-c3cccnc3)n2)cc(OC)c1OC | 55.3 |
| COc1cc(C(=O)c2cc(-c3ccc(C)cc3)ccn2)cc(OC)c1OC | 16.3 |
| COc1cc(C(=O)c2cccc(-c3ccc(N)cc3)n2)cc(OC)c1OC | 12.1 |
| COc1cc(C(=O)c2cccc(-c3ccc(F)cc3)n2)cc(OC)c1OC | 15.4 |
